Source: patent US8791115B2, “Combination of triazine derivatives and insulin sensitisers” (Poxel SAS, priority 2006, dated 2014)
Where a name gives a salt, the structure may show the parent alone.

Test system: diabetic GK rats
Test: Modulation of glucose levels (glycaemia and oral glucose tolerance test) in diabetic GK rats
Format: in vivo, rat
Conditions: for % variation vs control (glycaemia after 4 days of treatment) / Glycaemia after 4 days of treatment: PO bid for 4 days, alone or combined; for Glycaemia before treatment: baseline before treatment
Method: Biological Test: Modulation of Glucose Levels with the Combinations of the Invention with Insulin Sensitisers
The capacity of the compounds of the invention in combination with insulin-sensitising antidiabetic compounds to modify the blood glucose levels is evaluated in vivo in diabetic GK rats.
Alone or in combination, the antidiabetic agents are administered twice a day (bid) to the GK rats for 4 days. The oral glucose tolerance test (OGTT) is performed after the last day of treatment.
OGTT is performed in the morning after 3 hours of fasting by oral administration of a glucose charge of 2 g/kg of body mass. The blood samples are collected from the tail vein at 0; 10; 20; 30; 45; 60; 90 and 120 minutes to determine the glucose levels.
The two compounds were administered alone and in combination. The doses used for the hydrochloride salt of (+)-2-amino-3,6-dihydro-4-dimethylamino-6-methyl-1,3,5-triazine were 50 and 100 mg/kg PO twice daily for 4 days.

[1] = GK rats, triazine salt 100 mg/kg, rosiglitazone 5 mg/kg

Row | SMILES | fasted plasmatic glucose level (GK rats, 4 days, rosiglitazone 5 mg/kg, triazine salt 100 mg/kg) | glucose tolerance, compared with rosiglitazone (GK rats, OGTT, triazine salt 100 mg/kg vs rosiglitazone 5 mg/kg) | % variation vs control (glycaemia after 4 days of treatment) [1] | Glycaemia after 4 days of treatment [1] | Glycaemia before treatment (GK rats) | % decrease in AUC vs control (OGTT after 4 days of treatment PO bid, triazine salt 100 mg/kg, rosiglitazone 5 mg/kg) | Glycaemia R under the curve (AUC) (OGTT, glucose 2 g/kg oral after 3 h fasting, 0-120 min, after 4 days of treatment PO bid, triazine salt 100 mg/kg, rosiglitazone 5 mg/kg)
1 | CC1N=C(N)NC(N(C)C)=N1 (single isomer, unassigned; (+)) [(+)-2-amino-3,6-dihydro-4-dimethylamino-6-methyl-1,3,5-triazine hydrochloride] | induced a decrease | better glucose tolerance | −16% | 11.01 ± 0.37 mmol/L | 12.95 ± 0.41 mmol/L | −19.6% | 2688 +/− 99
2 | CN(CCOc1ccc(CC2SC(=O)NC2=O)cc1)c1ccccn1 (stereo not shown) [Rosiglitazone, rosiglitazone, reference compound] |  |  | −19.7% | 10.52 ± 0.84 mmol/L | 12.81 ± 0.27 mmol/L |  | 
